Measurements from patent US20230058189A1, “QUINOLIN-4-ONE AND 4(1H)-CINNOLINONE COMPOUNDS AND METHODS OF USING SAME” (Frequency Therapeutics, Inc., priority 2019, published 2023).
In brackets after ≈: the same amount, converted by molar mass. One block for each compound: values may come before it.

Assays:
[1] = system: Lgr5+ cells (cochlear stem cells); experiment: Lgr5+ assay: expansion of Lgr5-positive cochlear cells in 3D culture; type: cell-based, mouse; conditions: for % of Lgr5+ Positive Cells / Potency (Lgr5+ activity): 10 days culture with EGF, bFGF, IGF1, approximate values; for Potency (Lgr5+ activity): effective concentration for Lgr5+ expansion
Text: “Stem Cell Proliferation Assay” as used herein is an assay to determine the capacity for agent(s) to induce the creation of stem cells from a starting cell population. In an exemplary Stem Cell Proliferation Assay, the number of cells for an initial cell population is harvested from a Lgr5-GFP mouse such as a B6.129P2-Lgr5tm1(cre/ERT2)Cle/J mouse (also known as Lgr5-EGFP-IRES-creERT2 or Lgr5-GFP mouse, Jackson Lab Stock No: 008875) between the age of 3 to 7 days, by isolating the organ of Corti sensory epithelium and dissociating the epithelium into single cells. Approximately 5000 cells are entrapped in 40 μl of culture substrate (for example, Matrigel (Corning, Growth Factor Reduced)) and placed at the center of wells in a 24-well plate with 500 μl of an appropriate culture media, growth factors and agent being tested. Appropriate culture media and growth factors include Advanced DMEM/F12 with media supplements (1×N2, 1×B27, 2 mM Glutamax, 10 mM HEPES, 1 mM N-acetylcysteine, and 100 U/ml penicillin/100 μg/ml streptomycin) and growth factors (50 ng/ml EGF, 50 ng/ml bFGF, and 50 ng/ml IGF-1) as well as the agent(s) being assessed are added into each well. Cells are cultured for 10 days in a standard cell culture incubator at 37° C. and 5% CO2, with media change every 2 days. The number of Lgr5^+ cells is quantified by counting the number of cells identified as Lgr5+ in an in vitro Lgr5 activity assay (i.e., an assay mearing in vitro Lgr5 activity). The fraction of cells that are Lgr5^+ is quantified by dividing the number of cells identified as Lgr5^+ in a cell population by the total number of cells present in the cell population. The average Lgr5^+ activity of a population is quantified by measuring the average mRNA expression level of Lgr5 of the population normalized using suitable and unregulated references or housekeeping genes (e.g., Hprt). The number of hair cells in a population may be measured by staining with hair cell marker (e.g., MyosinVIIa), or using an endogenous reporter of hair cell genes (e.g., Pou4f3-GFP, Atoh1-nGFP) and analyzing using flow cytometry. The fraction of cells that are hair cells is quantified by dividing the number of cells identified as hair cells in a cell population by the total number of cells present in the cell population. Lgr5 activity can be measured by qPCR.
The compounds of the present disclosure were used in Lgr5-EGFP-IRES-Cre-ER mice (Barker et al., 2007) to analyze the effects of small molecules on cochlear stem cell expansion.
Isolation of stem cells from the inner ear: All animal studies were conducted under an approved institutional protocol according to National Institutes of Health guidelines. For experiments with neonatal mice (postnatal days 1-3), the cochleae were dissected in Hank's Balanced Salt Solution (HBSS) and the organs of Corti were separated from the stria vascularis and the modiolus. The organs of Corti were then treated with Cell Recovery Solution (Corning) for 1 hour to separate cochlear epithelium from the underlying mesenchyme. Epithelia were then collected and treated with TrypLE (Life Technologies) for 15-20 minutes at 37° C. Single cells obtained by mechanical trituration were filtered (40 μm) and suspended in Matrigel® (Corning) for 3D culture.
Cells were cultured in a 1:1 mixture of DMEM and F12, supplemented with Glutamax (GIBCO), N2, B27 (Invitrogen), EGF (50 ng/ml; Chemicon), bFGF (50 ng/ml; Chemicon), IGF1 (50 ng/ml; Chemicon) and the composition provided herein. Medium was changed every other day.
Lgr5-positive cells were quantified after 10 days (D10) in culture in multiple conditions. Cell colonies were dissociated into single cells using TrypLE (Gibco). The cells were then stained with propidium iodide (P1) and were analyzed using a flow cytometer for Lgr5-GFP expression. The number of GFP-positive cells and the percentage of GFP-positive cells were quantified. […]

[2] = Thermodynamic aqueous solubility at pH 7.4; type: physicochemical; conditions: aqueous buffer, thermodynamic from solid, phosphate buffer pH 7.4, 25° C., approximate values, read-out: Concentration (thermodynamic aqueous solubility)
Experimental: The aqueous thermodynamic solubilities of the compounds of the present disclosure were measured at pH 7.4.
Determining suitability for use of a compound, e.g., as a therapeutic agent can include determining the thermodynamic solubility of the compound. An example of this determination follows: Accurately weigh about 1 mg of the powder of each compound into a glass insert vial and phosphate buffer into each vial of a capless Solubility Sample plate with the volume of 1 mL per mg. Next, add one stir stick to each vial and seal with a molded PTDE/SIL 96-Well Plate Cover. Transfer the Solubility Sample plate to an Eppendorf Thermomixer Comfort plate shaker and shake the plate at 25° C. at 1,100 rpm for 24 hours. At the end of the incubation, open the cover and remove the stir sticks using a big magnet and transfer the samples from the Solubility Sample plate into the filter plate. Using the vacuum manifold, all the samples were filtered. An aliquot of 100 μL was transferred from filtrate to a new 96-well plate by addition of 900 μL of a mixture of H2O and acetonitrile containing an internal standard (1:1) (10 fold) and 10 μL of the diluted solution was pipetted into a new 96-well plate by addition of 990 μL of a mixture of H2O and acetonitrile containing internal standard (1:1) (1,000 fold). The dilution factor may be changed according to the solubility value and the LC/MS signal response.
To prepare standards for the assay, accurately weigh about 1 mg of the powder of each compound into a glass insert vial, add DMSO into each vial of the Standard Plate with the volume of 1 mL per mg to obtain the 1 mg/mL STD sample. Aliquots of 10 μL were taken from 1 mg/mL STD sample to a new 96-well plate followed by addition of 990 μL of a mixture of H2O and acetonitrile containing internal standard (1:1) to obtain 10 μg/mL STD and then 10 μL aliquots were taken from 10 μg/mL sample to a new 96-well plate followed by addition of 990 μL of a mixture of H2O and acetonitrile containing internal standard (1:1) to obtain 0.1 μg/mL STD. The concentration of the standard sample may be changed according to the LC/MS signal response.
The samples were analyzed and quantified against the standard of known concentration using LC/MS/MS. The solubility of the test compound was calculated as follows: [Sample]=Area Ratio sample×DF sample×[STD]/Area Ratio STD DF means the dilution factor. Any value of the compounds that is not within the specified limits was rejected and the experiment was repeated.

[3] = in a background of growth factors, compared to CHIR-99021 and its combinations (figures)

SMILES: CCn1cc(-c2nnn[nH]2)c(=O)c2c(N)c(F)c(NCCc3ccccc3)cc21 [Compound I-68]
solubility thermodynamic at 24 h [2]: 0.03 µM (≈ 0.0118 µg/mL)

SMILES: CCn1cc(C#N)c(=O)c2c(N)c(F)c(N[C@@H]3C[C@H]3c3ccccc3)cc21 (relative stereo) [Compound I-38]
% of Lgr5+ Positive Cells [1]: 7.5% | Potency (Lgr5+ activity) [1]: 0.123 µM | solubility thermodynamic at 24 h [2]: < 0.01 µM

SMILES: CCC(CC)n1cc(C(=O)O)c(=O)c2c(C)c(F)c(NC3CCCCC3)cc21 [Compound I-3]
% of Lgr5+ Positive Cells [1]: <5% | Potency (Lgr5+ activity) [1]: >10 µM

SMILES: CCn1cc(C(=O)O)c(=O)c2c(N)c(F)c(NCCN[C@@H]3C[C@@]34CCc3ccccc34)cc21 (relative stereo) [Compound I-82]
% of Lgr5+ Positive Cells [1]: 48% | Potency (Lgr5+ activity) [1]: 10 µM

SMILES: CCn1cc(C(=O)O)c(=O)c2c(N)c(F)c(N[C@@H]3C[C@H]3c3ccccc3)cc21 [Compound I-21]
% of Lgr5+ Positive Cells [1]: 21% | Potency (Lgr5+ activity) [1]: 3.3 µM

SMILES: Cn1cc(C(=O)O)c(=O)c2c(N)c(F)c(NCCN[C@@H]3C[C@H]3c3ccccc3)cc21 (relative stereo) [Compound I-86]
% of Lgr5+ Positive Cells [1]: 4% | Potency (Lgr5+ activity) [1]: >30 µM | solubility thermodynamic at 24 h [2]: 23 µM (≈ 9.44 µg/mL)

SMILES: CCn1cc(C(=O)O)c(=O)c2c(N)c(F)c(NC3CCc4ccccc43)cc21 (centres unmarked) [Compound I-10]
% of Lgr5+ Positive Cells [1]: 1% | Potency (Lgr5+ activity) [1]: >10 µM

SMILES: Nc1c(F)c(NCCN[C@@H]2C[C@H]2c2ccccc2)cc2c1c(=O)c(C(=O)O)cn2C1CC1 (relative stereo) [Compound I-89]
% of Lgr5+ Positive Cells [1]: 35% | Potency (Lgr5+ activity) [1]: 3.3 µM

SMILES: CCn1cc(C#N)c(=O)c2c(N)c(F)c(NCCc3ccccc3)cc21 [Compound I-67]
solubility thermodynamic at 24 h [2]: 0.23 µM (≈ 0.0806 µg/mL)

SMILES: CCn1cc(C(=O)O)c(=O)c2c(N)c(F)c(N3CCC(N[C@@H]4C[C@H]4c4ccccc4)CC3)cc21 (relative stereo) [Compound I-26]
% of Lgr5+ Positive Cells [1]: <5% | Potency (Lgr5+ activity) [1]: >10 µM

SMILES: Nc1c(F)c(N[C@@H]2C[C@H]2c2ccccc2)c(F)c2c1c(=O)c(C(=O)O)cn2C1CC1 (relative stereo) [Compound I-32]
solubility thermodynamic at 24 h [2]: < 0.08 µM

SMILES: CCn1cc(C(=O)O)c(=O)c2c(N)cc(NCCc3ccccc3)c(F)c21 [Compound I-65]
solubility thermodynamic at 24 h [2]: 0.11 µM (≈ 0.0406 µg/mL)

SMILES: CCn1cc(C(=O)O)c(=O)c2c(N)c(F)c(N[C@H]3C[C@@H]3c3ccccc3)cc21 [Compound I-22]
% of Lgr5+ Positive Cells [1]: 16% | Potency (Lgr5+ activity) [1]: 1.1 µM

SMILES: CC(C)n1cc(C(=O)O)c(=O)c2c(N)c(F)c(N[C@]3(C)C[C@@H](N[C@@H]4C[C@H]4c4ccccc4)C3)cc21 (relative stereo) [Compound I-93]
% of Lgr5+ Positive Cells [1]: 8% | Potency (Lgr5+ activity) [1]: >30 µM

SMILES: CCn1cc(C(=O)O)c(=O)c2c(N)cc(N[C@@H]3C[C@H]3c3ccccc3)cc21 (relative stereo) [Compound I-59]
solubility thermodynamic at 24 h [2]: < 0.06 µM

SMILES: CC(C)n1cc(C(=O)O)c(=O)c2c(N)c(F)c(NCCN[C@@H]3C[C@H]3c3ccccc3)cc21 (relative stereo) [Compound I-88]
% of Lgr5+ Positive Cells [1]: 32% | Potency (Lgr5+ activity) [1]: 1.1 µM

SMILES: CCn1cc(C(=O)O)c(=O)c2cc(F)c(NC3CCCCC3)cc21 [Compound I-1]
% of Lgr5+ Positive Cells [1]: <5% | Potency (Lgr5+ activity) [1]: >10 µM

The next lines start with results.

solubility thermodynamic at 24 h [2]: < 0.08 µM
SMILES: CCn1cc(C(=O)O)c(=O)c2c(N)c(F)c(NC3Cc4ccccc4C3)cc21 [Compound I-11]
% of Lgr5+ Positive Cells [1]: 17% | Potency (Lgr5+ activity) [1]: 3.3 µM

solubility thermodynamic at 24 h [2]: 1.1 µM (≈ 0.375 µg/mL)
SMILES: CCn1cc(C(=O)O)c(=O)c2c(N)c(F)c(Nc3ccccc3)cc21 [Compound I-16]
% of Lgr5+ Positive Cells [1]: 22% | Potency (Lgr5+ activity) [1]: 1.1 µM

solubility thermodynamic at 24 h [2]: < 0.002 µM
SMILES: CCn1cc(C(=O)O)c(=O)c2c(N)c(F)c(N[C@H]3C[C@@H](c4ccccc4)C3)cc21 [Compound I-61]
% of Lgr5+ Positive Cells [1]: 30% | Potency (Lgr5+ activity) [1]: 1.1 µM

solubility thermodynamic at 24 h [2]: 0.11 µM (≈ 0.0391 µg/mL)
SMILES: CCn1cc(C(=O)O)c(=O)c2c(N)c(F)c(NCc3ccccc3)cc21 [Compound I-17]
% of Lgr5+ Positive Cells [1]: 22% | Potency (Lgr5+ activity) [1]: 3.3 µM

solubility thermodynamic at 24 h [2]: < 0.12 µM
SMILES: CCn1cc(C(=O)O)c(=O)c2c(N)c(F)c(NC3CCCCC3)cc21 [Compound I-7]
% of Lgr5+ Positive Cells [1]: 22% | Potency (Lgr5+ activity) [1]: 0.37 µM | Lgr5 GFP+ progenitor cell proliferation (Lgr5 positive cell count) [1, 3]: generate Lgr5 GFP+ progenitor cell proliferation | enrichment of Lgr5 GFP+ cochlear progenitor cells (percent of Lgr5 positive cells) [1, 3]: generates enrichment of Lgr5 GFP+ cochlear progenitor cells

solubility thermodynamic at 24 h [2]: < 0.3 µM
SMILES: CCn1cc(C(=O)O)c(=O)c2c(N)c(F)c(N[C@@H]3C[C@H]3c3ccccc3)cc21 (single isomer, unassigned) [Compound I-20]
% of Lgr5+ Positive Cells [1]: 42%

solubility thermodynamic at 24 h [2]: < 0.03 µM
SMILES: CCn1cc(C(=O)O)c(=O)c2c(N)c(F)c(NCCCc3ccccc3)cc21 [Compound I-19]
% of Lgr5+ Positive Cells [1]: 17% | Potency (Lgr5+ activity) [1]: 0.37 µM

solubility thermodynamic at 24 h [2]: 54 µM (≈ 21.4 µg/mL)
SMILES: CCn1cc(C(=O)O)c(=O)c2c(N)c(F)c(Nc3ccc([C@@H]4C[C@H]4N)cc3)cc21 (relative stereo) [Compound I-62]

solubility thermodynamic at 24 h [2]: < 1.8 µM
SMILES: CCn1cc(C(=O)O)c(=O)c2c(N)c(F)c(NC3CCCC3)cc21 [Compound I-9]
% of Lgr5+ Positive Cells [1]: 13% | Potency (Lgr5+ activity) [1]: 1.1 µM

solubility thermodynamic at 24 h [2]: 0.06 µM (≈ 0.0221 µg/mL)
SMILES: CCn1cc(C(N)=O)c(=O)c2c(N)c(F)c(NCCc3ccccc3)cc21 [Compound I-66]

solubility thermodynamic at 24 h [2]: < 1.2 µM
SMILES: CCn1cc(C(=O)O)c(=O)c2c(N)c(F)c(N[C@@H]3CC[C@H]3c3ccccc3)cc21 (relative stereo) [Compound I-13]
